Results on six compounds are retold here after patent US5319096A, “(1H-indol-1-yl)-2-(amino) acetamides and related (1H-indol-1-yl)-(aminoalkyl)amides, pharmaceutical composition and use” (Hoechst-Roussel Pharmaceuticals Inc., priority 1992, dated 1994).

Assay [1] deals with direct infusion of NMDA or quinolinate into the rat striatum. Particulars: cited from earlier work.
The test system of assay [2] is striatal neurons, infusion of quinolinate. Particulars: 100 mg/kg, i.p., 1 hour after infusion of quinolinate; cited from earlier work.
For assay [3], the system named is global ischemia in the gerbil. Particulars: cited from earlier work.
In assay [4] the test system is NMDA-induced Striatal Lesion. As to the kind of experiment: Protection Against NMDA-induced Striatal Lesion (% control enzyme activity, lesioned vs contralateral striatum). Type of assay: in vivo, Male Sprague Dawley rats. Particulars: ip, NMDA 150 nanomoles, 7 days post surgery; for % Control Enzyme Activity ChAT: choline acetyltransferase; for % Control Enzyme Activity GAD: glutamic acid decarboxylase. The text has this:
Glutamate, aspartate and other excitatory amino acids (EAA) are putative neurotransmitters at vertebrate CNS excitatory synapses. […] The neurotoxicity of EAA has led to the implication of their involvement in human neurodegenerative disorders such as Alzheimer's Disease. Subacute or chronic overexposure to endogenous neurotoxin may lead to the slow degeneration of neurons (Olney, J., Excitotoxic Amino Acids and Neuropsychiatric Disorders. Annu. Rev. Pharmacol. Toxicol. 30:47-71, 1990). […] The striatal lesion paradigm can be used to assess the neuroprotective potential of novel compounds.
Testing of the compounds was carried out as follows: Male Sprague Dawley rats (Charles River) are housed under standard laboratory conditions as outlined in the "Guide for the Care and Use of Laboratory Animals" (National Institutes of Health Publications No. 85-23, Revised 1985). Food and water were provided ad libitum; lights were on from 0600-1800 h. Sterile techniques were used during surgery.
Rats (250-320 g) were anesthetized with chloral hydrate (400 mg/kg i.p., 10 ml/kg) and mounted in a David Kopf® stereotaxic instrument. An incision was made in the scalp and the skull surface was exposed. All coordinates were taken from the point on the skull where bregma meets the midline suture. The adjustable incisor bar was set at 3.3 mm below horizontal but may be adjusted. A 1-2 mm burr hole in the skull was made with a dental drill 0.5 mm anterior to bregma and 3.0 mm lateral from the midline (Paxinos, G. and Watson, C., The Rat Brain in Stereotaxic Coordinates. New York: Academic Press, 2nd ed., 1986). […] The cannula remained in place for one minute before infusion began. A total volume of 1 μl of NMDA (150 nanomoles per μl) solution was infused slowly (0.2 μl/2 min, total time of infusion was 10 min). The cannula remained in place for 5 minutes and then was slowly withdrawn (approx. 0.1 mm every 12 sec). NMDA was dissolved in 0.1M sodium phosphate buffer, pH 7.4. An equally osmolar solution of sodium chloride was used as a control in the contralateral striatum. The burr hole was sealed with bone wax and the scalp sutured closed.
The animals were sacrificed by decapitation seven days following surgery. The striatum was dissected over ice. […]
The experimental compounds were dissolved in 0.9% NaCl or appropriate vehicle and administered i.p. either pre- and/or post-excitotoxin infusion. […] Analysis of variance was calculated by the Newman-Keuls test with the PHARM/PCS computer program (Tallarida, R. J. and Murray, R. B., Manual of Pharmacologic Calculations with Computer Programs, Springer-Verlag, New York, 1987).

The subject of assay [5] is neurodegeneration in the rat striatum caused by intracerebral infusion of NMDA. Particulars: cited from earlier work.

Counter-ions that a name gives are not always drawn.

With `O=C(O)c1cc(O)c2ccc(Cl)cc2n1` [7-Chlorokynurenate], in assay [1], the neuroprotection result is recorded as “significant neuroprotection”. Turning to `O=C(O)C1CN(CCCP(=O)(O)O)CCN1` (stereo not drawn) [CPP], the “protection of striatal neurons” value in assay [2] is “partial protection of striatal neurons”. Consider `NS(=O)(=O)c1cccc2c1c([N+](=O)[O-])cc1nc(O)c(O)nc12` [NBQX, 2,3-Dihydroxy-6-nitro-7-sulfamoylbenzo(F)quinoxaline], for which the “protection against global ischemia” value in assay [3] is “protects against global ischemia in the gerbil”. For the compound `NCC(=O)Nn1ccc2ccccc21` [[N-(1H-Indol-1-yl)-2-amino]acetamide hydrochloride], in assay [4] (100 mg/kg, pretreatment 30 min), the “% Control Enzyme Activity ChAT” value was determined as 68 % Control and the “% Control Enzyme Activity GAD” value was 63 % Control. For `C[C@]12N[C@H](Cc3ccccc31)c1ccccc12` [dizocilpine], the “protection against neurodegeneration in the rat striatum” value in assay [5] is on record as “protected against neurodegeneration in the rat striatum”. Moreover, in assay [4] (10 mg/kg, pretreatment 60 min), the “% Control Enzyme Activity ChAT” value is given as 104 % Control and the “% Control Enzyme Activity GAD” value is 110 % Control. As for `NC1CCN(O)C1=O` (stereo not drawn) [HA-966, 3-amino-1-hydroxypyrrolid-2-one], in assay [1], the neuroprotection result is “significant neuroprotection”.
